# From ChEMBL document CHEMBL4138123, “Design, synthesis and biological evaluation of novel pyrazolochalcones as potential modulators of PI3K/Akt/mTOR pathway and inducers of apoptosis in breast cancer cells” (Eur J Med Chem, 2017)
# Key:
# Type in all cases: functional
# SF-539 [1] = assay: Cytotoxicity against human SF539 cells assessed as cell growth at 10 uM after 48 hrs by sulforhodamine B assay relative to control; settings: SF-539, 48 h, read-out: Activity
# DU-145 = assay: Cytotoxicity against human DU145 cells assessed as growth inhibition after 48 hrs by sulforhodamine B assay; settings: DU-145, 48 h
# UACC-62 [2] = assay: Cytotoxicity against human UACC62 cells assessed as cell growth at 0.1 uM after 48 hrs by sulforhodamine B assay relative to control; settings: UACC-62, 48 h, read-out: Activity
# MDA-MB-231 = assay: Cytotoxicity against human MDA-MB-231 cells assessed as growth inhibition after 48 hrs by sulforhodamine B assay; settings: MDA-MB-231, 48 h
# HOP-62 = assay: Cytotoxicity against human HOP62 cells assessed as cell growth at 0.1 uM after 48 hrs by sulforhodamine B assay relative to control; settings: HOP-62, 48 h, read-out: Activity
# COLO 205 = assay: Cytotoxicity against human COLO205 cells assessed as cell growth at 10 uM after 48 hrs by sulforhodamine B assay relative to control; settings: COLO 205, 48 h, read-out: Activity
# Hs-578T [3] = assay: Cytotoxicity against human Hs 578T cells assessed as cell growth at 0.01 uM after 48 hrs by sulforhodamine B assay relative to control; settings: read-out: Activity
# MCF7 = assay: Cytotoxicity against human MCF7 cells assessed as cell growth at 0.01 uM after 48 hrs by sulforhodamine B assay relative to control; settings: MCF7, 48 h, read-out: Activity
# SNB-19 = assay: Cytotoxicity against human SNB19 cells assessed as cell growth at 100 uM after 48 hrs by sulforhodamine B assay relative to control; settings: SNB-19, 48 h, read-out: Activity
# SR [4] = assay: Cytotoxicity against human SR cells assessed as cell growth at 1 uM after 48 hrs by sulforhodamine B assay relative to control; settings: read-out: Activity
# HCT-116 [5] = assay: Cytotoxicity against human HCT116 cells assessed as cell growth at 0.01 uM after 48 hrs by sulforhodamine B assay relative to control; settings: HCT-116, 48 h, read-out: Activity
# IGROV-1 = assay: Cytotoxicity against human IGROV1 cells assessed as cell growth at 100 uM after 48 hrs by sulforhodamine B assay relative to control; settings: IGROV-1, 48 h, read-out: Activity
# SR [6] = assay: Cytotoxicity against human SR cells assessed as cell growth at 100 uM after 48 hrs by sulforhodamine B assay relative to control; settings: read-out: Activity
# UO-31 [7] = assay: Cytotoxicity against human UO31 cells assessed as cell growth at 100 uM after 48 hrs by sulforhodamine B assay relative to control; settings: UO-31, 48 h, read-out: Activity
# MDA-MB-435 = assay: Cytotoxicity against human MDA-MB-435 cells assessed as cell growth at 1 uM after 48 hrs by sulforhodamine B assay relative to control; settings: MDA-MB-435, 48 h, read-out: Activity
# M14 [8] = assay: Cytotoxicity against human M14 cells assessed as growth inhibition after 48 hrs by sulforhodamine B assay; settings: M14, 48 h
# Hs-578T [9] = assay: Cytotoxicity against human Hs 578T cells assessed as cell growth at 0.1 uM after 48 hrs by sulforhodamine B assay relative to control; settings: read-out: Activity
# UACC-62 [10] = assay: Cytotoxicity against human UACC62 cells assessed as cell growth at 100 uM after 48 hrs by sulforhodamine B assay relative to control; settings: UACC-62, 48 h, read-out: Activity
# SK-MEL-28 [11] = assay: Cytotoxicity against human SK-MEL-28 cells assessed as cell growth at 100 uM after 48 hrs by sulforhodamine B assay relative to control; settings: SK-MEL-28, 48 h, read-out: Activity
# UO-31 [12] = assay: Cytotoxicity against human UO31 cells assessed as cell growth at 0.1 uM after 48 hrs by sulforhodamine B assay relative to control; settings: UO-31, 48 h, read-out: Activity
# SK-MEL-28 [13] = assay: Cytotoxicity against human SK-MEL-28 cells assessed as cell growth at 10 uM after 48 hrs by sulforhodamine B assay relative to control; settings: SK-MEL-28, 48 h, read-out: Activity
# HCT-116 [14] = assay: Cytotoxicity against human HCT116 cells assessed as cell growth at 100 uM after 48 hrs by sulforhodamine B assay relative to control; settings: HCT-116, 48 h, read-out: Activity
# OVCAR-3 = assay: Cytotoxicity against human OVCAR3 cells assessed as cell growth at 1 uM after 48 hrs by sulforhodamine B assay relative to control; settings: OVCAR-3, 48 h, read-out: Activity
# LOX IMVI = assay: Cytotoxicity against human LOXIMVI cells assessed as growth inhibition after 48 hrs by sulforhodamine B assay
# A498 = assay: Cytotoxicity against human A498 cells assessed as cell growth at 10 uM after 48 hrs by sulforhodamine B assay relative to control; settings: A498, 48 h, read-out: Activity
# HCC 2998 = assay: Cytotoxicity against human HCC2998 cells assessed as cell growth at 1 uM after 48 hrs by sulforhodamine B assay relative to control; settings: HCC 2998, 48 h, read-out: Activity
# UACC-62 [15] = assay: Cytotoxicity against human UACC62 cells assessed as growth inhibition after 48 hrs by sulforhodamine B assay; settings: UACC-62, 48 h
# NCI-H522 = assay: Cytotoxicity against human NCI-H522 cells assessed as cell growth at 100 uM after 48 hrs by sulforhodamine B assay relative to control; settings: NCI-H522, 48 h, read-out: Activity
# MDA-MB-468 = assay: Cytotoxicity against human MDA-MB-468 cells assessed as cell growth at 10 uM after 48 hrs by sulforhodamine B assay relative to control; settings: MDA-MB-468, 48 h, read-out: Activity
# SK-MEL-5 = assay: Cytotoxicity against human SK-MEL-5 cells assessed as cell growth at 0.1 uM after 48 hrs by sulforhodamine B assay relative to control; settings: SK-MEL-5, 48 h, read-out: Activity
# OVCAR-5 = assay: Cytotoxicity against human OVCAR5 cells assessed as cell growth at 1 uM after 48 hrs by sulforhodamine B assay relative to control; settings: OVCAR-5, 48 h, read-out: Activity
# UO-31 [16] = assay: Cytotoxicity against human UO31 cells assessed as cell growth at 10 uM after 48 hrs by sulforhodamine B assay relative to control; settings: UO-31, 48 h, read-out: Activity
# T47D = assay: Cytotoxicity against human T47D cells assessed as cell growth at 0.01 uM after 48 hrs by sulforhodamine B assay relative to control; settings: read-out: Activity
# M14 [17] = assay: Cytotoxicity against human M14 cells assessed as cell growth at 0.1 uM after 48 hrs by sulforhodamine B assay relative to control; settings: M14, 48 h, read-out: Activity
# SF-539 [18] = assay: Cytotoxicity against human SF539 cells assessed as growth inhibition after 48 hrs by sulforhodamine B assay; settings: SF-539, 48 h
# NCI-H226 = assay: Cytotoxicity against human NCI-H226 cells assessed as cell growth at 0.1 uM after 48 hrs by sulforhodamine B assay relative to control; settings: NCI-H226, 48 h, read-out: Activity
smiles,measurement,setting,value
COc1cc(-c2cc(/C=C/C(=O)c3ccc(N)cc3)[nH]n2)cc(OC)c1OC,growth at 10 µM,SF-539 [1],-93%
same,GI50,DU-145,1.65 µM
same,TGI,DU-145,4.05 µM
same,CC50,DU-145; read-out: LC50 (the source's name),9.95 µM
same,growth at 0.1 µM,UACC-62 [2],99%
same,GI50,MDA-MB-231,2.06 µM
same,LC50,MDA-MB-231,47.5 µM
same,TGI,MDA-MB-231,12.2 µM
same,growth at 0.1 µM,HOP-62,92%
same,growth at 10 µM,COLO 205,-84%
same,growth at 0.01 µM,Hs-578T [3],95%
same,growth at 0.01 µM,MCF7,89%
same,growth at 100 µM,SNB-19,-94%
same,growth at 1 µM,SR [4],14%
same,growth at 0.01 µM,HCT-116 [5],95%
same,growth at 100 µM,IGROV-1,-49%
same,growth at 100 µM,SR [6],-13%
same,growth at 100 µM,UO-31 [7],-93%
same,growth at 1 µM,MDA-MB-435,88%
same,GI50,M14 [8],1.83 µM
same,LC50 (concentration killing 50% of cells),M14 [8],8.17 µM
same,TGI,M14 [8],3.86 µM
same,growth at 0.1 µM,Hs-578T [9],88%
same,growth at 100 µM,UACC-62 [10],-92%
same,growth at 100 µM,SK-MEL-28 [11],-83%
same,growth at 0.1 µM,UO-31 [12],91%
same,growth at 10 µM,SK-MEL-28 [13],-57%
same,growth at 100 µM,HCT-116 [14],-73%
same,growth at 1 µM,OVCAR-3,79%
same,GI50,LOX IMVI,1.06 µM
same,LC50,LOX IMVI,6.72 µM
same,TGI,LOX IMVI,3.28 µM
same,growth at 10 µM,A498,-43%
same,growth at 1 µM,HCC 2998,110%
same,GI50,UACC-62 [15],1.7 µM
same,LC50,UACC-62 [15],7.51 µM
same,TGI,UACC-62 [15],3.58 µM
same,growth at 100 µM,NCI-H522,-83%
same,growth at 10 µM,MDA-MB-468,-58%
same,growth at 0.1 µM,SK-MEL-5,95%
same,growth at 1 µM,OVCAR-5,89%
same,growth at 10 µM,UO-31 [16],-84%
same,growth at 0.01 µM,T47D,83%
same,growth at 0.1 µM,M14 [17],101%
same,GI50,SF-539 [18],1.3 µM
same,LC50 (concentration killing 50% of cells),SF-539 [18],5.42 µM
same,TGI,SF-539 [18],2.66 µM
same,growth at 0.1 µM,NCI-H226,98%
